Measurements taken from US20060173015A1, “Cyclohexyldiamines as selective alpha 1a/1d adrenoreceptor antagonists for the treatment of benign prostatic hypertrophy and lower urinary tract symptoms” (priority 2004, published 2006).

How the values were obtained:
[1] = system: Prostatic Intraurethral Pressure (IUP); test: Phenylephrine-induced prostatic IUP in an anesthetized canine model; format: in vivo; conditions: anesthetized dog
Procedure: In-Vivo Evaluation of α1-Adrenergic Antagonists on Prostatic Intraurethral Pressure (IUP) and Mean Arterial Pressure (MAP) in an Anesthetized Canine Model
An anesthetized dog was fitted with a balloon catheter for the measurement of changes in prostatic IUP and with a non-invasive blood pressure (NIBP) cuff for determination of MAP.
The pressor effects of challenge doses (i.v.) of the α-adrenergic agonist phenylephrine upon IUP and MAP were measured before and at various time points after a single dose (i.v.) of an α-adrenergic antagonist test compound (Compound 69) of the present invention.
Each treatment group was dosed with a test compound (0.01, 0.03, 0.1 and 0.5 mg/kg) in four separate experiments. The first challenge dose of phenylephrine was administered 30 mins prior to the test compound dose and at 30 min intervals thereafter for a total time period of 5 hrs (i.e at time minus 30 mins, time plus 30 mins, 1 hr, 1.5 hrs, 2 hrs, 2.5 hrs, 3 hrs, 3.5 hrs, 4 hrs, 4.5 hrs and 5 hrs).
The animals were fasted overnight, anesthetized with propofol (4 mg/kg IV or to effect), then intubated and anesthesia maintained using inhalation isoflurane (1-2% in oxygen at a flow rate of 2 l/min) with animals breathing spontaneously.
A 7F Fogarty balloon catheter lubricated with a water-soluble jelly was inserted into the urethra and advanced into the bladder (approximately 40 cm). The balloon was inflated with approximately water (0.2 mL). The catheter was slowly withdrawn from the bladder to just past the point of first resistance from the bladder neck in order to position the balloon within the prostatic urethra. The balloon was then inflated to approximately 0.7 mL. The balloon port of the catheter was connected to a Gould Statham pressure transducer, the output of which was connected to the pressure input of a Physio Control VSM1 Patient Monitor.
A test compound was administered via the cephalic vein using an appropriately sized IV catheter (Surflo, Terumo Medical Corporation or equivalent).
(§1) Prior to test compound administration, IUP and MAP responses to an individualized dose of phenylephrine (either 10 or 15 μg/kg IV, depending on the individual animal's response) was repeated 2 to 3 times to establish a baseline response. After test compound administration, the individualized phenylephrine dose was administered to each animal at 30 minute intervals over a period of 5 hours.
(§2) Data for phenylephrine-induced changes in IUP and MAP were tabulated for each treatment group and each experiment. A mean value and standard deviation for the phenylephrine-induced changes to the effect of a test compound on IUP and MAP at each dose was calculated and tabulated for each treatment group over the length of the 5.5 hour study.

[2] = system: MAP; test: Phenylephrine-induced MAP in a conscious canine model; format: in vivo; conditions: conscious dog
Procedure: In-Vivo Evaluation of α1-Adrenergic Antagonists on IUP and MAP in a Conscious Canine Model
An anesthetized dog was fitted with a balloon catheter for the measurement of changes in prostatic IUP and with a number of implanted pressure transducers and telemetry transmitters for measuring MAP.
The pressor effects of challenge doses […] of the α-adrenergic agonist phenylephrine upon IUP and MAP were measured before and at various time points after a single dose (p.o.) of an α-adrenergic antagonist test compound (Compound 69) of the present invention.
Each treatment group was dosed with a test compound (0.1, 0.3, 1.0 and 3.0 mg/kg) in four separate experiments. The first challenge dose of phenylephrine for each treatment group was administered at the time of the test compound dose (time 0). The value for the first challenge dose represents an average of up to three challenge doses administered prior to time 0.
Subsequent challenge doses for all treatment groups were administered at 30 min. then one hour and two hours after time 0.
The final challenge doses for the 0.1 and 0.3 mg/kg groups were administered at four and six hours after time 0. The final challenge doses for the 1.0 mg/kg group were administered at four, six and eight hours after time 0. The final challenge doses for the 3.0 mg/kg group were administered at four, six, 12 and 24 hours after time 0.
A pressure transducer and telemetry transmitter (DSI TA11PA-D70 35 cm, Data Sciences International, St. Paul, Minn.) were implanted according to directions in “PA Device Surgical Manual” provided by the manufacturer.
A test compound was administered via the cephalic or saphenous vein using an appropriately sized IV catheter (Surflo, Terumo Medical Corporation or equivalent).
as §1, with “at predetermined” for “at 30 minute”, “of up to 24” for “of 5”
as §2, with “the” for “the 5.5 hour”

COc1ccc(S(=O)(=O)N[C@H]2CC[C@@H](N3CCN(c4ccccc4OCC(F)(F)F)CC3)CC2)cc1OC [Cpd 69, 3,4-Dimethoxy-N-cis-(4-{4-[2-(2,2,2-trifluoro-ethoxy)-phenyl]-piperazin-1-yl}-cyclohexyl)-benzenesulfonamide]
IUP, normalized % of baseline (mean) ([1]; 0.01 mg/kg i.v., 0 hrs (baseline)): 100% | IUP, normalized % of baseline (mean) ([1]; 0.01 mg/kg i.v., 0.5 hrs after dose): 78.1% | IUP, normalized % of baseline (mean) ([1]; 0.01 mg/kg i.v., 1 hrs after dose): 81.9% | IUP, normalized % of baseline (mean) ([1]; 0.01 mg/kg i.v., 2 hrs after dose): 83.6% | IUP, normalized % of baseline (mean) ([1]; 0.01 mg/kg i.v., 3 hrs after dose): 83.3% | IUP, normalized % of baseline (mean) ([1]; 0.01 mg/kg i.v., 4 hrs after dose): 83.0% | IUP, normalized % of baseline (mean) ([1]; 0.01 mg/kg i.v., 5 hrs after dose): 84.5% | IUP, normalized % of baseline (mean) ([1]; 0.03 mg/kg i.v., 0 hrs (baseline)): 100% | IUP, normalized % of baseline (mean) ([1]; 0.03 mg/kg i.v., 0.5 hrs after dose): 64.8% | IUP, normalized % of baseline (mean) ([1]; 0.03 mg/kg i.v., 1 hrs after dose): 64.8% | IUP, normalized % of baseline (mean) ([1]; 0.03 mg/kg i.v., 1.5 hrs after dose): 70.8% | IUP, normalized % of baseline (mean) ([1]; 0.03 mg/kg i.v., 2 hrs after dose): 71.1% | IUP, normalized % of baseline (mean) ([1]; 0.03 mg/kg i.v., 2.5 hrs after dose): 79.1% | IUP, normalized % of baseline (mean) ([1]; 0.03 mg/kg i.v., 3 hrs after dose): 81.1% | IUP, normalized % of baseline (mean) ([1]; 0.03 mg/kg i.v., 3.5 hrs after dose): 81.6% | IUP, normalized % of baseline (mean) ([1]; 0.03 mg/kg i.v., 4 hrs after dose): 84.8% | IUP, normalized % of baseline (mean) ([1]; 0.03 mg/kg i.v., 4.5 hrs after dose): 83.5% | IUP, normalized % of baseline (mean) ([1]; 0.03 mg/kg i.v., 5 hrs after dose): 83.8% | IUP, normalized % of baseline (mean) ([1]; 0.1 mg/kg i.v., 0 hrs (baseline)): 100% | IUP, normalized % of baseline (mean) ([1]; 0.1 mg/kg i.v., 0.5 hrs after dose): 39.5% | IUP, normalized % of baseline (mean) ([1]; 0.1 mg/kg i.v., 1 hrs after dose): 48.4% | IUP, normalized % of baseline (mean) ([1]; 0.1 mg/kg i.v., 1.5 hrs after dose): 56.3% | IUP, normalized % of baseline (mean) ([1]; 0.1 mg/kg i.v., 2 hrs after dose): 61.3% | IUP, normalized % of baseline (mean) ([1]; 0.1 mg/kg i.v., 2.5 hrs after dose): 67.1% | IUP, normalized % of baseline (mean) ([1]; 0.1 mg/kg i.v., 3 hrs after dose): 69.9% | IUP, normalized % of baseline (mean) ([1]; 0.1 mg/kg i.v., 3.5 hrs after dose): 75.2% | IUP, normalized % of baseline (mean) ([1]; 0.1 mg/kg i.v., 4 hrs after dose): 78.8% | IUP, normalized % of baseline (mean) ([1]; 0.1 mg/kg i.v., 4.5 hrs after dose): 74.2% | IUP, normalized % of baseline (mean) ([1]; 0.1 mg/kg i.v., 5 hrs after dose): 77.3% | IUP, normalized % of baseline (mean) ([1]; 0.5 mg/kg i.v., 0 hrs (baseline)): 100% | IUP, normalized % of baseline (mean) ([1]; 0.5 mg/kg i.v., 0.5 hrs after dose): 17.4% | IUP, normalized % of baseline (mean) ([1]; 0.5 mg/kg i.v., 1 hrs after dose): 16.1% | IUP, normalized % of baseline (mean) ([1]; 0.5 mg/kg i.v., 1.5 hrs after dose): 27.0% | IUP, normalized % of baseline (mean) ([1]; 0.5 mg/kg i.v., 2 hrs after dose): 29.1% | IUP, normalized % of baseline (mean) ([1]; 0.5 mg/kg i.v., 2.5 hrs after dose): 36.1% | IUP, normalized % of baseline (mean) ([1]; 0.5 mg/kg i.v., 3 hrs after dose): 38.8% | IUP, normalized % of baseline (mean) ([1]; 0.5 mg/kg i.v., 3.5 hrs after dose): 45.5% | IUP, normalized % of baseline (mean) ([1]; 0.5 mg/kg i.v., 4 hrs after dose): 46.4% | IUP, normalized % of baseline (mean) ([1]; 0.5 mg/kg i.v., 4.5 hrs after dose): 48.0% | IUP, normalized % of baseline (mean) ([1]; 0.5 mg/kg i.v., 5 hrs after dose): 54.4% | MAP, normalized % of baseline (mean) ([2]; 0.1 mg/kg p.o., 0 hrs (baseline)): 100% | MAP, normalized % of baseline (mean) ([2]; 0.1 mg/kg p.o., 0.5 hrs after dose): 87.7% | MAP, normalized % of baseline (mean) ([2]; 0.1 mg/kg p.o., 1 hrs after dose): 93.3% | MAP, normalized % of baseline (mean) ([2]; 0.1 mg/kg p.o., 2 hrs after dose): 80.1% | MAP, normalized % of baseline (mean) ([2]; 0.1 mg/kg p.o., 4 hrs after dose): 89.7% | MAP, normalized % of baseline (mean) ([2]; 0.1 mg/kg p.o., 6 hrs after dose): 91.0% | MAP, normalized % of baseline (mean) ([2]; 0.3 mg/kg p.o., 0 hrs (baseline)): 100% | MAP, normalized % of baseline (mean) ([2]; 0.3 mg/kg p.o., 0.5 hrs after dose): 64.9% | MAP, normalized % of baseline (mean) ([2]; 0.3 mg/kg p.o., 1 hrs after dose): 59.3% | MAP, normalized % of baseline (mean) ([2]; 0.3 mg/kg p.o., 2 hrs after dose): 67.7% | MAP, normalized % of baseline (mean) ([2]; 0.3 mg/kg p.o., 4 hrs after dose): 85.6% | MAP, normalized % of baseline (mean) ([2]; 0.3 mg/kg p.o., 6 hrs after dose): 103.9% | MAP, normalized % of baseline (mean) ([2]; 1.0 mg/kg p.o., 0 hrs (baseline)): 100% | MAP, normalized % of baseline (mean) ([2]; 1.0 mg/kg p.o., 0.5 hrs after dose): 47.3% | MAP, normalized % of baseline (mean) ([2]; 1.0 mg/kg p.o., 1 hrs after dose): 37.2% | MAP, normalized % of baseline (mean) ([2]; 1.0 mg/kg p.o., 2 hrs after dose): 52.8% | MAP, normalized % of baseline (mean) ([2]; 1.0 mg/kg p.o., 4 hrs after dose): 61.3% | MAP, normalized % of baseline (mean) ([2]; 1.0 mg/kg p.o., 6 hrs after dose): 76.6% | MAP, normalized % of baseline (mean) ([2]; 1.0 mg/kg p.o., 8 hrs after dose): 87.8% | MAP, normalized % of baseline (mean) ([2]; 3.0 mg/kg p.o., 0 hrs (baseline)): 100% | MAP, normalized % of baseline (mean) ([2]; 3.0 mg/kg p.o., 0.5 hrs after dose): 43.4% | MAP, normalized % of baseline (mean) ([2]; 3.0 mg/kg p.o., 1 hrs after dose): 19.7% | MAP, normalized % of baseline (mean) ([2]; 3.0 mg/kg p.o., 2 hrs after dose): 21.7% | MAP, normalized % of baseline (mean) ([2]; 3.0 mg/kg p.o., 4 hrs after dose): 39.8% | MAP, normalized % of baseline (mean) ([2]; 3.0 mg/kg p.o., 6 hrs after dose): 50.2% | MAP, normalized % of baseline (mean) ([2]; 3.0 mg/kg p.o., 12 hrs after dose): 80.2% | MAP, normalized % of baseline (mean) ([2]; 3.0 mg/kg p.o., 24 hrs after dose): 95.1%
